Experimental data: US12268727B2, “Bioactive polypeptides for improvements in plant protection, growth and productivity” (priority 2017, dated 2025)
Where “and” joins values, the source holds several entries; their conditions need not be identical. Equal values may be shown once. Non-standard residues stand in square brackets, D forms with d. No end group written: not given here. sY = N[C@@H](Cc1ccc(OS(=O)(=O)O)cc1)C(=O)O

Key:
corn [1] = assay: Foliar application to corn in growth room, plant height (non-stress, heat and water deficit stress); conditions: separate replicated trials; stress environment; HpaG-like 1 μM, At. PSKα 100 nM foliar
[2] = tested on: reactive oxygen species (ROS) production in corn tissue; assay: ROS activity assay in corn tissue (luminol/horseradish peroxidase, RLU)
[3] = tested on: reactive oxygen species (ROS) production in soybean leaf tissue; assay: ROS activity assay in soybean leaf tissue (luminol/horseradish peroxidase, RLU); format: cell-based
[4] = tested on: reactive oxygen species (ROS) production in tomato leaf tissue; assay: ROS activity assay in tomato leaf tissue; format: cell-based; conditions: 5 nM
Description: Tomato leaves were excised from 4-week-old plants using a cork borer to generate 4 mm disks. Each disc was cut in half using the edge of a razor blade, and then each disc half was floated on 150 μL of water in a 96-well plate to rest overnight. The next day, the water was removed from each well just prior to polypeptide treatment. The Flg polypeptides as described in Table 66 were added to water to bring them to a final concentration of 5 nM (Table 67) and 100 nM (Table 68) in solution with luminol and HRP before adding to each treatment well. To maintain activity, the polypeptides were stored in small aliquots to avoid multiple freezing and thawing. All dilutions to obtain working concentrations were done in ultrapure water. Polypeptide solutions were stored at −20° C. for short term usage or −80° C. for long term storage. RLU values and relative ROS activity (Tables 67, 68) is reported as the average of 4 measurements.

corn [5] = assay: Seed treatment of corn, field yield trials; format: in vivo
soybean = assay: Seed treatment of soybean, field yield trials; format: in vivo; conditions: seed treatment on base ST, polypeptide 1.0 μM (cellobiose 1 mM where combined)
[6] = Table 33, RLU relative to native Bt.4Q7Flg22 = 100
[7] = Table 35, single polypeptides and combinations, Bt.4Q7Flg22 = 100
[8] = mutant versus native Bt.4Q7Flg22, *(predicted)

## At. PSKα ([sY]I[sY]TQ; listed as Arabidopsis thaliana)
Corn [1]
  Plant Height (cm) Percentage Change Compared to Control (0.01% surfactant) Stress: +6.1%

## LRLSSGYRINSAADDAAGLAIS (listed as Lysinibacillus sp.) [SEQ ID NO: 291]
[2]; [6]
  Avg. Activity (%) Corn (5828 YX) 5 nM polypeptide: 26.6%
[3]; [6]
  Avg. Activity (%) Soybean (297 R4) 100 nM polypeptide: 64.1%

## EKLSSGQRINSASDDAAGLAIS (listed as Bacillus aryabhattai) [SEQ ID NO: 289]
[2]; [6]
  Avg. Activity (%) Corn (5828 YX) 5 nM polypeptide: 27.1%
[3]; [6]
  Avg. Activity (%) Soybean (297 R4) 100 nM polypeptide: 42.2%

## A.spp.FlgII28: FlgII-28 from Aneurinibacillus sp. XH2 (EIHEMLQRMRELAVQAANGTYSDKDKKA; listed as Aneurinibacillus sp.)
[4]
  ROS response: equally low ROS response

## DRLSSGKRINNASDDAAGLAIA [SEQ ID NO: 294]
[3]; [6]
  Avg. Activity (%) Soybean (297 R4) 100 nM polypeptide: 90.0%

## NRLSSGKQINSASDDAAGLAIA (listed as Bacillus manliponensis) [SEQ ID NO: 290]
[2]; [6]
  Avg. Activity (%) Corn (5828 YX) 5 nM polypeptide: 106.0%
[3]; [6]
  Avg. Activity (%) Soybean (297 R4) 100 nM polypeptide: 74.6%

## GKLSSGLRINGASDDAAGLAIS (listed as Paenibacillus sp.) [Pa.Flg22]
Corn [5]; 1 uM in slurry, 3 hybrids, 8 locations
  yield gain vs base seed treatment only: 3.57 Bu/Ac
Corn [5]; seed treatment on base ST, BECK's 5828YX, 1 location, four replicated trials, polypeptide 1.0 μM (cellobiose 1 mM where combined)
  Average Yield Bu/Ac: 39.04 Bu/Ac
Corn [5]; seed treatment on base ST, BECK's 5828YX, polypeptide 1.0 μM (cellobiose 1 mM where combined)
  Average Change in Bu/Ac compared to Untreated Control: +11.04 Bu/Ac
soybean; 1 variety, 1 location, four replicate plots
  Average Yield Bu/Ac: 41.39 Bu/Ac
soybean
  Average Change in Bu/Ac compared to Untreated Control: +0.28 Bu/Ac
[2]; [6]
  Avg. Activity (%) Corn (5828 YX) 5 nM polypeptide: 116.0%
[3]; [6]
  Avg. Activity (%) Soybean (297 R4) 100 nM polypeptide: 88.6%

## A spp.Flg22-B4 (ERLSSGYRINRASDDAAGLAIS)
[2]; [6]
  Avg. Activity (%) Corn (5828 YX) 5 nM polypeptide: 78.1%
[2]; [7]
  Avg. Activity (%) Corn (5828 YX) 5 nM polypeptide: 53.64%
[3]; [6]
  Avg. Activity (%) Soybean (297 R4) 100 nM polypeptide: 133.1%
[3]; [7]
  Avg. Activity (%) Soybean (297 R4) 100 nM polypeptide: 106.37%

## L spp.Flg22-L2 (EKLSSGLRINRAGDDAAGLAIS)
[2]; [6]
  Avg. Activity (%) Corn (5828 YX) 5 nM polypeptide: 104.5%
[2]; [7]
  Avg. Activity (%) Corn (5828 YX) 5 nM polypeptide: 113.04%
[3]; [6]
  Avg. Activity (%) Soybean (297 R4) 100 nM polypeptide: 128.6%
[3]; [7]
  Avg. Activity (%) Soybean (297 R4) 100 nM polypeptide: 138.86%

## EKLSSGYKINRASDDAAGLAIS (Lysinibacillus spp.) [SEQ ID NO: 581]
[2]; [6]
  Avg. Activity (%) Corn (5828 YX) 5 nM polypeptide: 36.4%
[3]; [6]
  Avg. Activity (%) Soybean (297 R4) 100 nM polypeptide: 96.9%

## NRLSSGKRINSAADDAAGLAIA [SEQ ID NO: 295]
[2]; [6]
  Avg. Activity (%) Corn (5828 YX) 5 nM polypeptide: 134.7%
[2]; [7]
  Avg. Activity (%) Corn (5828 YX) 5 nM polypeptide: 142.53%
[3]; [6]
  Avg. Activity (%) Soybean (297 R4) 100 nM polypeptide: 83.0%
[3]; [7]
  Avg. Activity (%) Soybean (297 R4) 100 nM polypeptide: 97.59%

## EKLSSGFRINRAGDDAAGLAIS (Lysinibacillus macroides) [SEQ ID NO: 584]
[2]; Table 33, RLU relative to native Bt.4Q7Flg22 = 100, listed as Lm.Flg22-L6
  Avg. Activity (%) Corn (5828 YX) 5 nM polypeptide: 58.7% and 33.7%

## DRLSSGQRINSASDDAAGLAIA [SEQ ID NO: 579]
[2]; [8]
  Description of ROS activity results (corn), predicted: K7Q mutation: Strong reduction in ROS
[3]; [8]
  Description of ROS activity results (soybean), predicted: K7Q mutation: Strong reduction in ROS
